Active and inactive are the calls of the source.
What was measured:
Cytochrome P450 2D6 = Cytochrome P450 2D6 (Homo sapiens, UniProt P10635);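 further: CYP2D6 member of a cytochrome P450 panel assay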
Cytochrome P450 1A2 = target: T1, Cytochrome P450 1A2 (Homo sapiens, UniProt P05177);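 further: PubChem cytochrome P450 panel assay, CYP1A2 panel member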
T1 sequence (P05177 whole entry): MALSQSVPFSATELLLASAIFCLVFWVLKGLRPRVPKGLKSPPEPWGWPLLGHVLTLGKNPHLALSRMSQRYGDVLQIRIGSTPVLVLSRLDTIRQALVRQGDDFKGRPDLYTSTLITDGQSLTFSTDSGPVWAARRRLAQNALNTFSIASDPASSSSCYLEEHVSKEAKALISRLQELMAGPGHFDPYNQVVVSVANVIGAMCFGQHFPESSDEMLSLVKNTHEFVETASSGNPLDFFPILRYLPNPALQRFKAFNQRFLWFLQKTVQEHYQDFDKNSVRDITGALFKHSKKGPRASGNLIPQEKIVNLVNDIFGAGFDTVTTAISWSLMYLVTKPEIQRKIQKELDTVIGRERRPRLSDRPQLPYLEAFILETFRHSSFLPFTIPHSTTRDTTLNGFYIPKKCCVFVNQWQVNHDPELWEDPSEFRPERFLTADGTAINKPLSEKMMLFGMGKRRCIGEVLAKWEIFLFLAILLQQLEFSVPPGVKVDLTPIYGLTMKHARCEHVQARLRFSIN

[1] = inhibitors of firefly luciferase expression or activity, dose response, H4 neuroglioma cells, luminescence (AID 1990); format: functional, cell-based
[2] = Luminescence Cell-Based Dose Response HTS to Identify Inhibitors of 5'UTR Stem-Loop Driven Prion Protein mRNA Translation in H4 Neuroglioblastoma Cells. [Related pubchem assays: 1827 (Project Summary), 1813 (Primary HTS)]; format: functional
[3] = inhibitors of SNCA 5'UTR-driven reporter translation, confirmation, H4 neuroglioma cells, luminescence (AID 1988); format: functional, cell-based
[4] = target: T2, Carboxy-terminal domain RNA polymerase II polypeptide A small phosphatase 1 (Homo sapiens, UniProt Q9GZU7); test: inhibitors of CTDSP1, concentration-response testing, biochemical assay, absorbance-based, actives from ultra-high-throughput screening (AID 540297); format: functional
T2 sequence (Q9GZU7 whole entry): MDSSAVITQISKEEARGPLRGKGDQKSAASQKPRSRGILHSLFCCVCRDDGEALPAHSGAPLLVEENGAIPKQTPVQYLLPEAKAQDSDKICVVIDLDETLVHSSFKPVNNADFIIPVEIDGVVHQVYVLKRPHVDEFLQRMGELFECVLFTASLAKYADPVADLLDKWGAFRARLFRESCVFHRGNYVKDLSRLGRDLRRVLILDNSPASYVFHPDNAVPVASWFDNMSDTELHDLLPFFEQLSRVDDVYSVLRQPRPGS

Cytochrome P450 3A4 = Cytochrome P450 3A4 (Homo sapiens, UniProt P08684);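 further: CYP3A4 tested as one member of a cytochrome P450 panel screen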
Cytochrome P450 3A4, sequence (P08684 whole entry): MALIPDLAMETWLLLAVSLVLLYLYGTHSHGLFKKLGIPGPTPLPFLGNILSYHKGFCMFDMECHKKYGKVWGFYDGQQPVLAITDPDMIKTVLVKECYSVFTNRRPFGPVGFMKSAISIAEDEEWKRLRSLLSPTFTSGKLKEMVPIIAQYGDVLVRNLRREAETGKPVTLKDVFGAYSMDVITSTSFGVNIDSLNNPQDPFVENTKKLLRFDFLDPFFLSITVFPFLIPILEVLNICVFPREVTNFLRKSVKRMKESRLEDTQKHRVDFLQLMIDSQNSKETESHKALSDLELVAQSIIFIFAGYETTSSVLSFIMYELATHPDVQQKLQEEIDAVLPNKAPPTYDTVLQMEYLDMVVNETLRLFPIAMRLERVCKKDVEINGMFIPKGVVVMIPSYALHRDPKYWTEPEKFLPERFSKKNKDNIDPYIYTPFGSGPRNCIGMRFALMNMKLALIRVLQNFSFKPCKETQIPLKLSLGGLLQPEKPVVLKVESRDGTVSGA

[5] = growth suppression of PTEN-null colon cells, dose response, cell-based, HCT116 PTEN knockout (AID 1047); format: functional;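 further: HCT116 colon tumor cells with PTEN knocked out; cells exposed to compound for 60 hours before readout; potency for loss of cell viability measured by luminescence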
[6] = growth suppression of beta-catenin-knockout colon cells, dose response, cell-based, HCT116, human colon tumor (AID 1045); format: functional;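 further: HCT116 colon tumor cells with beta catenin knocked out; cells exposed to compound for 60 hours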
[7] = target: T3, Polyadenylate-binding protein 1 (Homo sapiens, UniProt P11940); test: PABP1 MLLE–PAM2 interaction inhibitors, dose response, miRNA deadenylation inhibitor project, biochemical, fluorescence polarization, Cy5-PAM2 peptide, secondary (AID 602260); format: functional; conditions: read-out: IC50_Mean
T3 sequence (P11940 whole entry): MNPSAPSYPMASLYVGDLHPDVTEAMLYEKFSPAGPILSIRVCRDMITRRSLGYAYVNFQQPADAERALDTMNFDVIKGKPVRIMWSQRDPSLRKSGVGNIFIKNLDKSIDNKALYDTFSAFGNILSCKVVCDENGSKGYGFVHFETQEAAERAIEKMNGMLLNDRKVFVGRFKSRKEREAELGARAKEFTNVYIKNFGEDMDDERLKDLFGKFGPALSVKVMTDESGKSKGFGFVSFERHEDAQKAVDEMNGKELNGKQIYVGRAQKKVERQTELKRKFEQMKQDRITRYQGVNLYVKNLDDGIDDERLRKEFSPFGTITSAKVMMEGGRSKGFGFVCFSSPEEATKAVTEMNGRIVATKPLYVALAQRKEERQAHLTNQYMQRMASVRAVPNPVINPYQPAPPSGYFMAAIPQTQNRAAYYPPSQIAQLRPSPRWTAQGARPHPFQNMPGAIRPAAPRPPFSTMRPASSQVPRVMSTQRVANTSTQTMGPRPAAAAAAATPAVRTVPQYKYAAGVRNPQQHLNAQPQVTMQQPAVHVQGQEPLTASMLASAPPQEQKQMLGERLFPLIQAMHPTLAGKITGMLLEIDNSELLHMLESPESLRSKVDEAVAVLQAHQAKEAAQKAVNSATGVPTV

[8] = target: T3, Polyadenylate-binding protein 1; test: PABP1 MLLE–PAM2 binding inhibitor potency, dose response, biochemical, fluorescence polarization, FITC-PAM2 peptide (AID 602259); format: functional; conditions: read-out: IC50_Mean
cells = format: functional
Cytochrome P450 2C9 = Cytochrome P450 2C9 (Homo sapiens, UniProt P11712)
Cytochrome P450 2C9, sequence (P11712 whole entry): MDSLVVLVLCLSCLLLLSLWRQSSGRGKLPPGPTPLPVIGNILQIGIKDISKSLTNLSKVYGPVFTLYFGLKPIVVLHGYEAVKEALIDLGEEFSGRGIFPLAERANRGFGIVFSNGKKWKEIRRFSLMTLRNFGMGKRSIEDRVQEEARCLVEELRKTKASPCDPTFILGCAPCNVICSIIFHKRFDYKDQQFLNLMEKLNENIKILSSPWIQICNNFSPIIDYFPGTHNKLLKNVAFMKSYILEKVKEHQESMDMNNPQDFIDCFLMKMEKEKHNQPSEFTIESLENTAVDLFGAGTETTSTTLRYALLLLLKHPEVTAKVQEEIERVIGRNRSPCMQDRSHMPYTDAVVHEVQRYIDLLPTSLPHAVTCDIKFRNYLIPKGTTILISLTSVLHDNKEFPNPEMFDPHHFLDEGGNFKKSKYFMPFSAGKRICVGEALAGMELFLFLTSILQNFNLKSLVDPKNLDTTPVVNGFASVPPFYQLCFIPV

Cytochrome P450 2D6, sequence (P10635 whole entry): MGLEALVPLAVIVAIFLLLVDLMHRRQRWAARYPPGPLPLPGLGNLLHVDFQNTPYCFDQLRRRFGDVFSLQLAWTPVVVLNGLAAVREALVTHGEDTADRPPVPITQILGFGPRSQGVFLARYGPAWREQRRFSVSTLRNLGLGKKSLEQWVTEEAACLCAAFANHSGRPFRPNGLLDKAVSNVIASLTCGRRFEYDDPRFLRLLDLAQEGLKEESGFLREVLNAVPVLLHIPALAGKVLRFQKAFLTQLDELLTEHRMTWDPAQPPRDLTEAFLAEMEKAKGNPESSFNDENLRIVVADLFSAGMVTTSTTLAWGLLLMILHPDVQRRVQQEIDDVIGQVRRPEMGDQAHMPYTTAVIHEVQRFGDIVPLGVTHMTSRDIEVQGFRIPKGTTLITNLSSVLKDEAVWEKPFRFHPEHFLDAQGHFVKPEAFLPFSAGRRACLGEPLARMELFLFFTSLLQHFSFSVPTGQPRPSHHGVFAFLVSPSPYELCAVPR

Which AC50 (Cytochrome P450 2D6) does the source give for `Cc1cc(Cn2cnc3c2C[C@@H](C(=O)O)N(C(=O)C(c2ccccc2)c2ccccc2)C3)ccc1N(C)C` here?
Its AC50 is 39.8 µM (inconclusive).

What about the AC50 (Cytochrome P450 1A2) of the same molecule?
Its AC50 is 25.1 µM (inconclusive).

With `Cc1ccc(C(=O)Nc2cccc(C(F)(F)F)c2)cc1NC(=O)c1cnnc2ccccc12` as the molecule, how does the EC50 [1] read?
Its EC50 is 13.2 µM (active).

And the EC50 [2]?
Its EC50 is 18.9 µM (active).

What about the EC50 [3] of the same molecule?
Its EC50 is > 120 µM (not active).

With `COCCCNC(=O)c1ccc(Cn2c(=O)c3ccccc3n(Cc3ccccc3C#N)c2=O)cc1` as the molecule, how does the EC50 [1] read?
The EC50 was 20.7 µM (active).

What about the EC50 [2] of the same molecule?
The EC50 was > 120 µM (not active).

And the EC50 [3]?
Its EC50 is > 120 µM (not active).

With `O=c1c2ccccc2nc2sc(Nc3ccc(F)cc3)nn12` as the molecule, how does the IC50 [4] read?
Its IC50 is 8.04 µM (active).

What does the source list for `Cc1cc([C@](C)(N)C(=O)O)ccc1P(=O)(O)O`?
AC50 (Cytochrome P450 2D6): 12.6 µM (inconclusive); AC50 (Cytochrome P450 1A2): 31.6 µM (inconclusive)

Which IC50 [4] does the source give for `O=C(CSc1nc2ccccc2[nH]1)NC1CCCC1` here?
Its IC50 is 6.85 µM (active).

Which IC50 [4] does the source give for `O=C(CSc1ncccc1-c1nc2ccccc2[nH]1)NCc1ccco1` here?
The IC50 was 10.3 µM (active).

With `O=C(c1cnccn1)N1CCC[C@@]2(CCN(C(c3ccccc3)c3ccccc3)C2)C1` as the molecule, how does the AC50 (Cytochrome P450 1A2) read?
Its AC50 is 15.8 µM (inconclusive).

What about the AC50 (Cytochrome P450 3A4) of the same molecule?
Its AC50 is 2.51 µM (inconclusive).

With `O=C(/C=C/c1cccc(OCc2ccccc2)c1)c1cccnc1` as the molecule, how does the EC50 [5] read?
The EC50 was 5.59 µM (active).

What about the EC50 [6] of the same molecule?
Its EC50 is 3.79 µM (active).

With `Cc1ccc(C2=[N+]([O-])C3(CCCCC3=O)N(O)C2(C)C)cc1` (configuration not stated) as the molecule, how does the EC50 [1] read?
Its EC50 is > 120 µM (not active).

What about the EC50 [2] of the same molecule?
Its EC50 is > 120 µM (not active).

And the EC50 [3]?
The EC50 was 42.6 µM (active).

What does the source list for `Cc1nc2ccccn2c1C(=O)C1=C(O)C(=O)N(CCN(C)C)C1c1ccco1` (configuration not stated)?
IC50 [7]: > 66 µM (inactive); IC50 [8]: > 66 µM (inactive)

With `O=C(Cc1ccc(Cl)cc1)OCC(=O)c1ccc[nH]1` as the molecule, how does the IC50 (cells) read?
Its IC50 is 18.8 µM (active).

With `O=C(Nc1ccccc1F)c1cc(-c2ccco2)nc2ccccc12` as the molecule, how does the IC50 [4] read?
The IC50 was 8.25 µM (active).

With `COc1ccc(N/N=C2/CCCCC2=O)cc1` as the molecule, how does the IC50 [7] read?
The IC50 was > 66 µM (inactive).

What about the IC50 [8] of the same molecule?
The IC50 was > 66 µM (inactive).

Which results are given for `CC(C)(C)C1CCc2onc(C(=O)Nc3cnn(Cc4ccc(F)cc4)c3)c2C1` (configuration not stated)?
EC50 [1]: 28.2 µM (active); EC50 [2]: 23.3 µM (active); EC50 [3]: > 120 µM (not active)

With `CCCn1c(=O)c(C(=O)N/N=C/c2ccccc2F)c(O)c2ccccc21` as the molecule, how does the IC50 (cells) read?
Its IC50 is 48.2 µM (active).

With `O=C(CCCCCNC(=O)c1ccccc1)N/N=C/c1ccco1` as the molecule, how does the IC50 [4] read?
Its IC50 is 29.2 µM (active).

Which results are given for `COc1ccccc1/C=N/N=C(/Nc1ccc(C)cc1)c1nc2ccccc2s1`?
AC50 (Cytochrome P450 1A2): 14.1 µM (inconclusive); AC50 (Cytochrome P450 3A4): 17.8 µM (inconclusive); AC50 (Cytochrome P450 2C9): 17.8 µM (inconclusive)

For `COc1ccccc1/C=C/C=N/NC(=O)c1ccncc1`, which IC50 (cells) is on record?
The IC50 was 0.44 µM (active).

Which AC50 (Cytochrome P450 1A2) does the source give for `O=C1c2c(O)cc(O)cc2O[C@@H](c2ccc(O)c(O)c2)[C@H]1O` [(+)-EPITAXIFOLIN] here?
The AC50 was 15.8 µM (inconclusive).

Which AC50 (Cytochrome P450 1A2) does the source give for `O=C(O)CNC(=O)c1ccccc1O` [SALICYLURIC ACID] here?
Its AC50 is 5.01 µM (inconclusive).
